# Source: ChEMBL document CHEMBL2074225, “Tissue distribution and chemical induction of multiple drug resistance genes in rats” (Drug Metab Dispos, 2002)
# How the values were obtained:
# [1] = biological target: Multidrug resistance protein 1a (Rattus norvegicus) (UniProt Q6PSM0); test: (§1) TP_TRANSPORTER: Branched DNA assay in vivo SD rat, liver; type: functional, organism-based; details: Sprague-Dawley
# [2] = biological target: T1, ATP-dependent translocase ABCB1 (Rattus norvegicus, UniProt P43245); test: as §1; type: functional, organism-based, Sprague-Dawley
# T1 sequence (P43245 whole entry): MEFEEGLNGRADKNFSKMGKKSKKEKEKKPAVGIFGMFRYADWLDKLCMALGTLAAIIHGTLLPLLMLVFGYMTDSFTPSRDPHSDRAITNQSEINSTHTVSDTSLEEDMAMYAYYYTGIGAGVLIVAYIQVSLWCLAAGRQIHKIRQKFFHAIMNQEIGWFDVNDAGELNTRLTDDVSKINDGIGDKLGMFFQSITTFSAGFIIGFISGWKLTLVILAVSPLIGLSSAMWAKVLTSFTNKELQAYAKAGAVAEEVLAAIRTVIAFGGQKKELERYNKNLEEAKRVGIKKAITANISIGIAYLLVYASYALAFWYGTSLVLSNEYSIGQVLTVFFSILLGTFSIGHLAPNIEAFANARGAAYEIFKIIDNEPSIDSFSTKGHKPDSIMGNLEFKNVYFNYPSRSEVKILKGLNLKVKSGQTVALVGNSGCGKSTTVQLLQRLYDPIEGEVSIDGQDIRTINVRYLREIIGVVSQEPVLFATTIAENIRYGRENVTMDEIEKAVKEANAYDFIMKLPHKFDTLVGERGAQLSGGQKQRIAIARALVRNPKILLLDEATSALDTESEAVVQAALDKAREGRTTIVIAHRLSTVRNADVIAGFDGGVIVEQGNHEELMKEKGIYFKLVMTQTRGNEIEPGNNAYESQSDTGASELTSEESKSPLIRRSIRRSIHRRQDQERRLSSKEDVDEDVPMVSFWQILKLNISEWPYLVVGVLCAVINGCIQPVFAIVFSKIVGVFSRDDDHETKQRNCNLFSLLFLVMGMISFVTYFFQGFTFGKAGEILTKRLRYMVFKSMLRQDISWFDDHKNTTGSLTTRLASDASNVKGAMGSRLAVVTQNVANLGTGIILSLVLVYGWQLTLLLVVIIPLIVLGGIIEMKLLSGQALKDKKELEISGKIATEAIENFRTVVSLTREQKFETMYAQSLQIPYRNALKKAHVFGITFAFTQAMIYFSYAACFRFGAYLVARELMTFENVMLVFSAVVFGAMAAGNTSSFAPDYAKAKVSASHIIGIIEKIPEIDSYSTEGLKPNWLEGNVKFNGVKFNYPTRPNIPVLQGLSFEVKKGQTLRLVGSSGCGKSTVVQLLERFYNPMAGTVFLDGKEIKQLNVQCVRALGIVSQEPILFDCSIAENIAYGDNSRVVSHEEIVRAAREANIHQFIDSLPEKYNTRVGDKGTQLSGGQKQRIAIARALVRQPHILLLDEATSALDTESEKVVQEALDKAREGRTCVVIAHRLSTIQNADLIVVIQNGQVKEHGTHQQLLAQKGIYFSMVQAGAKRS
# [3] = biological target: T1, ATP-dependent translocase ABCB1; test: TP_TRANSPORTER: Branched DNA assay in vivo SD rat, kidney; type: functional, organism-based, Sprague-Dawley
# Sequence of Multidrug resistance protein 1a (Rattus norvegicus) (Q6PSM0 as listed by the source): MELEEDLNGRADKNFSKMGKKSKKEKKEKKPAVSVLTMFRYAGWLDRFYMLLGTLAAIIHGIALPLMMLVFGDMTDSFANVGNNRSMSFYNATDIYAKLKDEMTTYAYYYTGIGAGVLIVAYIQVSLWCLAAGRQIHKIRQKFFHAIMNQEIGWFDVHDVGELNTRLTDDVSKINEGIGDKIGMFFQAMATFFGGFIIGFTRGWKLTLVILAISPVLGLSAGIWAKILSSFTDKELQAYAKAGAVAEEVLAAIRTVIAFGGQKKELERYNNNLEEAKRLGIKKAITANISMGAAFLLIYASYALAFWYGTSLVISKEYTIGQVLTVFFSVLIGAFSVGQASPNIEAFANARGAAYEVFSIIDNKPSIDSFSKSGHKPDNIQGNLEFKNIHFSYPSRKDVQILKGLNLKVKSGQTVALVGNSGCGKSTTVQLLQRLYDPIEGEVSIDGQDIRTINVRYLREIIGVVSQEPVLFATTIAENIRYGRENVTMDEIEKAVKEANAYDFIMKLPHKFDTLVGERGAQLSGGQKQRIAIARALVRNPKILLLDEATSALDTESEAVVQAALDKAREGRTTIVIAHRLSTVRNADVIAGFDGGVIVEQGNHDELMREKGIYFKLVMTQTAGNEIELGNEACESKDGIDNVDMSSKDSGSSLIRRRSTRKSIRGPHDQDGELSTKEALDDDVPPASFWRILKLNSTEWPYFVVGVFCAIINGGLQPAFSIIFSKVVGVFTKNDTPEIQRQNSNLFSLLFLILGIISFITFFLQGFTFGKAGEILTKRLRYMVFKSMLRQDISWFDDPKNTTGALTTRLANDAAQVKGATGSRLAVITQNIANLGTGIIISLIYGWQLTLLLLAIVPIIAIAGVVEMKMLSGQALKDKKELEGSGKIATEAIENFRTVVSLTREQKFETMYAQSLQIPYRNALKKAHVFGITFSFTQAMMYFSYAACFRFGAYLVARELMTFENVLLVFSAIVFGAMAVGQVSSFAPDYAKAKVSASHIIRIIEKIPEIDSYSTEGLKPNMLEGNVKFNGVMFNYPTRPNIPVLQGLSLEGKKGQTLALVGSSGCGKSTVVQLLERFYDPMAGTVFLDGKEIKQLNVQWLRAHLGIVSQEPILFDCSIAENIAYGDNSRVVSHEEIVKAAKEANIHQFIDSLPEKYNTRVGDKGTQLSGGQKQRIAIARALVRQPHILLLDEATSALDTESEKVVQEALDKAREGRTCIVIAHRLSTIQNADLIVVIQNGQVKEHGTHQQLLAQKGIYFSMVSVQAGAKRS
SMILES,Activity [1],Activity [2],Activity [3]
C=CCSCC=C,inducer [+],,
Cc1c(-c2cnccn2)ssc1=S,inducer [+],,
OCc1c[nH]c2ccccc12 [INDOLE-3-CARBINOL],,inducer [+],
Clc1ccc(-c2cc(Cl)c(Cl)cc2Cl)c(Cl)c1 [POLYCHLORINATED BIPHENYL 99],,inducer [+],

# Results, then the compound that gave them:
Activity [1],Activity [2],Activity [3],SMILES
inducer [+],,,NNC(=O)c1ccncc1
,inducer [+],inducer [+],CN(N=O)C(=O)N[C@@H](C=O)[C@@H](O)[C@H](O)[C@H](O)CO [STREPTOZOCIN]
